Key:
A2B5+ OL precursor cells = experiment: Cell proliferation (BrdU incorporation) in OL precursor cultures; type: cell-based, rat; settings: topiramate 30 μM, NBQX 100 μM; 24 hours, BrdU last 2 hours
Method: Primary oligodendrocyte precursor cells were isolated from mixed glial cultures of the forebrains of newborn Sprague-Dawley rats using a selective detachment procedure as described in detail elsewhere (McCarthy and de Vellis, 1980; Back et al., 1998), and further purified by differential adhesion (Back et al., 1998). Precursor cells were maintained in a chemically-defined medium (CDM) supplemented with recombinant human platelet derived growth factor-AA (PDGF, 10 ng/ml) and basic fibroblast growth factor (bFGF, 10 ng/ml). […]
Cell proliferation was measured by determining the incorporation of the thymidine analog 5-bromo-2′-deoxyuridine (BrdU, […]) into replicating DNA of cells during the last 2 hr of the experiment. […] After the cells were incubated in a solution containing 2% BSA and 0.2% Triton X-100 for 30 min, BrdU incorporation was detected employing a murine monoclonal anti-BrdU antibody (Chemicon) and FITC-conjugated goat anti-mouse IgG. Quantitative analysis was performed by determining the percent of BrdU^+ cells in the A2B5^+ population. […] All assays were performed in triplicate and at least 1000 cells counted for each data point.
The proliferative capability of the cells was measured by the incorporation of the thymidine analog BrdU into DNA. […] A quantitative analysis was obtained by counting the number of BrdU^+ cells in the A2B5^+ population and calculating a percent. […]

[1] = test system: oligodendrocyte precursor cells; experiment: 45Ca2+ uptake in oligodendrocyte precursor cells; type: cell-based, rat; settings: NBQX 100 μM, topiramate 30 μM, uptake after 10 minutes; for OGD-induced Ca2+ accumulation (45Ca2+ uptake): OGD for 2 hr; for kainate-evoked Ca2+ entry (45Ca2+ uptake): kainate 300 μM
Method: Primary oligodendrocyte precursor cells were isolated from mixed glial cultures of the forebrains of newborn Sprague-Dawley rats using a selective detachment procedure as described in detail elsewhere (McCarthy and de Vellis, 1980; Back et al., 1998), and further purified by differential adhesion (Back et al., 1998). Precursor cells were maintained in a chemically-defined medium (CDM) supplemented with recombinant human platelet derived growth factor-AA (PDGF, 10 ng/ml) and basic fibroblast growth factor (bFGF, 10 ng/ml). The CDM was Dulbecco Modified Eagle's Medium (DMEM) containing D-glucose (25 mM), L-glutamine (4 mM), sodium pyruvate (1 mM), human apo-transferrin (50 μg/ml), bovine pancreatic insulin (5 μg/ml), sodium selenium (30 nM), hydrocortisone (10 nM), D-biotin (10 nM), and bovine serum albumin (BSA, 1 mg/ml). All chemicals were from Sigma. Precursor cells were maintained in the presence of growth factors (PDGF+bFGF) by refeeding with fresh medium every 48 hr for 7 days, to promote cell proliferation and prevent differentiation (Bogler et al., 1990). Experiments were performed with cultures maintained in CDM without the supplemental growth factors. These cultures were routinely characterized by immunochemical detection of cell-specific markers as described before (Back et al., 1998). Cultures at the beginning of experiments usually consisted of approximately 90% A2B5^+ oligodendrocyte precursors and less than 5% glial fibrillary acidic protein (GFAP)-positive astrocytes. Cells were plated on poly-DL-ornithine-coated 24-well plates for cell viability assays and on coated glass coverslips for immunocytochemistry, proliferation studies, and lineage analysis. To assay Ca^2+ influx, cultures were incubated with ^45CaCl2 (8 μCi/ml) at room temperature for 10 min, then washed with Hank's balanced salts-solution (HBSS) and lysed with 1% Triton-X 100 in HBSS. Radioactivity in the whole lysate was counted by liquid scintillation. To gain further insight into the mechanisms of the protective effect of topiramate and NBQX, kainate- or OGD-evoked calcium accumulation in oligodendrocyte precursor cells was investigated. Cultures were either not treated or given NBQX (100 μM) or topiramate (30 μM), together with ^45CaCl2 (8 μCi/ml), before adding kainate (300 μM) or after exposure to OGD for 2 hr. ^45Ca^2+ uptake was measured after 10 minutes.

Row | Structure (SMILES) | rate of BrdU incorporation (% BrdU+/A2B5+) (A2B5+ OL precursor cells) | OGD-induced Ca2+ accumulation (45Ca2+ uptake) [1] | kainate-evoked Ca2+ entry (45Ca2+ uptake) [1]
1 | NS(=O)(=O)c1cccc2c1c([N+](=O)[O-])cc1nc(O)c(O)nc12 [NBQX, 2,3-Dioxo-6-nitro-1,2,3,4-tetrahydrobenzo[f]quinoxaline-7-sulphonamide] | Neither topiramate or NBQX altered the rate of BrdU incorporation | fully prevented | completely blocked
2 | CC1(C)O[C@@H]2[C@@H](CO[C@@]3(COS(N)(=O)=O)OC(C)(C)O[C@@H]23)O1 [topiramate] | Neither topiramate or NBQX altered the rate of BrdU incorporation | fully prevented | partially prevented

Reference: patent publication US6921775B2, “Methods for modulating brain damage” (Children's Medical Center Corporation, priority 2001, dated 2005)
